Reference: PMC10576769 (Nature Communications, 2023)

Columns and labels:
LmPC-PLC [1] = molecular target: T1, LmPC-PLC (Listeria monocytogenes serovar 1/2a, UniProt P33378); test: biochemical; assay type: biochemical; details: for relative activity of LmPC-PLC WT on 4-NPPC (compared to uninhibited activity): Fig. 4g; for Activity of LmPC-PLC towards 4-NPPC (slope): 50 μM ZnSO4
LmPC-PLC [2] = molecular target: T1, LmPC-PLC; assay type: biochemical; details: 100% POPC MLVs […], 20 mM MES pH 6.5, 150 mM NaCl, 50 μM ZnSO4, 37 °C, replicate 1
[3] = molecular target: broad-range phospholipase C from Listeria monocytogenes (LmPC-PLC), wild type, mature form (Listeria monocytogenes) (UniProt P33378)

T1 sequence (P33378 52-289 limits assumed): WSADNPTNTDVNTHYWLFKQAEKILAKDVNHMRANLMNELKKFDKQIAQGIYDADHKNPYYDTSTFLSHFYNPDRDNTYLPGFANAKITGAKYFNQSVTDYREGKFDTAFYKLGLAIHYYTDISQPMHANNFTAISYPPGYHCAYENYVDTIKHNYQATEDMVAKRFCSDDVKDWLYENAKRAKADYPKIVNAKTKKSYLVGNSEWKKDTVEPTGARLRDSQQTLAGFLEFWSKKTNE
broad-range phospholipase C from Listeria monocytogenes (LmPC-PLC), wild type, mature form, sequence (P33378 52-289): as the sequence (P33378 52-289 limits assumed) above

Compound: CC[C@H](C)[C@H](NC(=O)[C@H](CC(=O)O)NC(=O)[C@H](Cc1c[nH]cn1)NC(=O)[C@@H]1CCCN1C(=O)[C@H](C)NC(=O)[C@H](C)NC(=O)[C@@H]1CCCN1C(=O)[C@@H](NC(=O)[C@H](CCC(N)=O)NC(=O)[C@H](CC(C)C)NC(=O)[C@H](Cc1ccc(O)cc1)NC(=O)[C@H](CCC(=O)O)NC(=O)[C@H](CC(=O)O)NC(=O)[C@H](CS)NC(=O)[C@H](CS)NC(=O)[C@H](C)NC(=O)[C@@H](N)CC(N)=O)[C@@H](C)O)C(=O)N[C@@H](CC(=O)O)C(=O)N[C@@H](CO)C(=O)N[C@@H](CCCCN)C(=O)N[C@@H](CC(C)C)C(=O)N1CCC[C@H]1C(=O)N[C@@H](Cc1c[nH]cn1)C(=O)N[C@@H](CCCCN)C(=O)N[C@@H](CC(C)C)C(=O)N[C@@H](CO)C(=O)O [NS-26]
- relative activity on 4-NPPC (compared to uninhibited activity), Lm (LmPC-PLC [1]; Fig. 4e, peptide 100uM, PC-PLC 500 nM, 4-NPPC 1 mM, 20 mM MES pH 6.5, 150 mM NaCl, 500 μM ZnSO4, 37 °C, replicate 1): 0.3179
- relative activity of LmPC-PLC WT on 4-NPPC (compared to uninhibited activity) (LmPC-PLC [1]; as E100, replicate 2): 0.2706
- relative activity of LmPC-PLC WT on 4-NPPC (compared to uninhibited activity) (LmPC-PLC [1]; as E100, replicate 3): 0.2574
- relative activity of LmPC-PLC WT on 4-NPPC (compared to uninhibited activity) (LmPC-PLC [1]; peptide 100 uM, enzyme 500 nM, 4-NPPC 1 mM, 20 mM MES pH 6.5, 150 mM NaCl, 500 μM ZnSO4, 37 °C, replicate 1): 0.2356
- IC50 (LmPC-PLC [1]; IC50, 95% CI, as IC50, 95% CI from the fit): 4.9 to 33.9 µM
- IC50 (LmPC-PLC [1]; IC50, LmPC-PLC 500 nM, 4-NPPC 1 mM, 20 mM MES pH 6.5, 150 mM NaCl, 500 μM ZnSO4, 37 °C, four-parameter logistic fit, n = 3): 9.4 µM
- relative activity on POPC (compared to uninhibited activity), Lm (LmPC-PLC [2]; Fig. 4f, peptide 10 uM, PC-PLC 50 nM): 0.3051
- relative activity of LmPC-PLC WT on POPC (compared to uninhibited activity) (LmPC-PLC [2]; Fig. 4h, peptide 100 uM as printed in the head (legend and method: 10 μM), enzyme 50 nM): 0.2837

Compound: O=C(O)CCP(CCC(=O)O)CCC(=O)O [TCEP]
- Activity of LmPC-PLC, 4-NPPC as substrate (slope) (LmPC-PLC [1]; 1 mM TCEP, Zn 500 uM, LmPC-PLC 500 nM, 4-NPPC 1 mM, replicate 1): 6.624e-5
- Activity of LmPC-PLC, 4-NPPC as substrate (slope) (LmPC-PLC [1]; 1 mM TCEP, Zn 500 uM, LmPC-PLC 500 nM, 4-NPPC 1 mM, replicate 2): 6.51e-5
- Activity of LmPC-PLC, 4-NPPC as substrate (slope) (LmPC-PLC [1]; 1 mM TCEP, Zn 500 uM, LmPC-PLC 500 nM, 4-NPPC 1 mM, replicate 3): 6.545e-5
- Activity of LmPC-PLC, 4-NPPC as substrate (slope) (LmPC-PLC [1]; 1 mM TCEP, Zn 5000 uM, LmPC-PLC 500 nM, 4-NPPC 1 mM, replicate 1): 0.0001618
- Activity of LmPC-PLC, 4-NPPC as substrate (slope) (LmPC-PLC [1]; 1 mM TCEP, Zn 5000 uM, LmPC-PLC 500 nM, 4-NPPC 1 mM, replicate 2): 0.0001898
- Activity of LmPC-PLC, 4-NPPC as substrate (slope) (LmPC-PLC [1]; 1 mM TCEP, Zn 5000 uM, LmPC-PLC 500 nM, 4-NPPC 1 mM, replicate 3): 0.0002041
- Activity of LmPC-PLC, 4-NPPC as substrate (slope) (LmPC-PLC [1]; 5 mM TCEP, Zn 500 uM, LmPC-PLC 500 nM, 4-NPPC 1 mM, replicate 1, value 0 = no slope could be determined): 0.00000
- Activity of LmPC-PLC, 4-NPPC as substrate (slope) (LmPC-PLC [1]; 5 mM TCEP, Zn 500 uM, LmPC-PLC 500 nM, 4-NPPC 1 mM, replicate 2, value 0 = no slope could be determined): 0.00000
- Activity of LmPC-PLC, 4-NPPC as substrate (slope) (LmPC-PLC [1]; 5 mM TCEP, Zn 500 uM, LmPC-PLC 500 nM, 4-NPPC 1 mM, replicate 3, value 0 = no slope could be determined): 0.00000
- Activity of LmPC-PLC, 4-NPPC as substrate (slope) (LmPC-PLC [1]; 5 mM TCEP, Zn 5000 uM, LmPC-PLC 500 nM, 4-NPPC 1 mM, replicate 1, value 0 = no slope could be determined): 0.00000
- Activity of LmPC-PLC, 4-NPPC as substrate (slope) (LmPC-PLC [1]; 5 mM TCEP, Zn 5000 uM, LmPC-PLC 500 nM, 4-NPPC 1 mM, replicate 2, value 0 = no slope could be determined): 0.00000
- Activity of LmPC-PLC, 4-NPPC as substrate (slope) (LmPC-PLC [1]; 5 mM TCEP, Zn 5000 uM, LmPC-PLC 500 nM, 4-NPPC 1 mM, replicate 3, value 0 = no slope could be determined): 0.00000
- Activity of LmPC-PLC, 4-NPPC as substrate (slope) (LmPC-PLC [1]; 20 mM TCEP, Zn 500 uM, LmPC-PLC 500 nM, 4-NPPC 1 mM, replicate 1, value 0 = no slope could be determined): 0.00000
- Activity of LmPC-PLC, 4-NPPC as substrate (slope) (LmPC-PLC [1]; 20 mM TCEP, Zn 500 uM, LmPC-PLC 500 nM, 4-NPPC 1 mM, replicate 2, value 0 = no slope could be determined): 0.00000
- Activity of LmPC-PLC, 4-NPPC as substrate (slope) (LmPC-PLC [1]; 20 mM TCEP, Zn 500 uM, LmPC-PLC 500 nM, 4-NPPC 1 mM, replicate 3, value 0 = no slope could be determined): 0.00000
- Activity of LmPC-PLC, 4-NPPC as substrate (slope) (LmPC-PLC [1]; 20 mM TCEP, Zn 5000 uM, LmPC-PLC 500 nM, 4-NPPC 1 mM, replicate 1, value 0 = no slope could be determined): 0.00000
- Activity of LmPC-PLC, 4-NPPC as substrate (slope) (LmPC-PLC [1]; 20 mM TCEP, Zn 5000 uM, LmPC-PLC 500 nM, 4-NPPC 1 mM, replicate 2, value 0 = no slope could be determined): 0.00000
- Activity of LmPC-PLC, 4-NPPC as substrate (slope) (LmPC-PLC [1]; 20 mM TCEP, Zn 5000 uM, LmPC-PLC 500 nM, 4-NPPC 1 mM, replicate 3, value 0 = no slope could be determined): 0.00000

Compound: c1ccc(CN(CCN(Cc2ccccn2)Cc2ccccn2)Cc2ccccn2)nc1 [TPEN, N,N,N′,N′-tetrakis(2-pyridinylmethyl)−1,2-ethanediamine]
- inhibition of LmPC-PLC compared with O-phe (LmPC-PLC [1]; LmPC-PLC 500 nM, 4-NPPC 1 mM, pH 6.5, 50 μM ZnSO4, Supplementary Fig. 10): even stronger inhibition
- Activity of LmPC-PLC towards 4-NPPC (slope) (LmPC-PLC [1]; inhibitor 2 uM, LmPC-PLC 500 nM, 4-NPPC 1 mM, 20 mM MES pH 6.5, 150 mM NaCl, replicate 1 of N=3): 0.0004788 abs/min
- Activity of LmPC-PLC towards 4-NPPC (slope) (LmPC-PLC [1]; inhibitor 2 uM, LmPC-PLC 500 nM, 4-NPPC 1 mM, 20 mM MES pH 6.5, 150 mM NaCl, replicate 2 of N=3): 0.0004923 abs/min
- Activity of LmPC-PLC towards 4-NPPC (slope) (LmPC-PLC [1]; inhibitor 2 uM, LmPC-PLC 500 nM, 4-NPPC 1 mM, 20 mM MES pH 6.5, 150 mM NaCl, replicate 3 of N=3): 0.0004163 abs/min
- Activity of LmPC-PLC towards 4-NPPC (slope) (LmPC-PLC [1]; inhibitor 4 uM, LmPC-PLC 500 nM, 4-NPPC 1 mM, 20 mM MES pH 6.5, 150 mM NaCl, replicate 1 of N=3): 0.0004484 abs/min
- Activity of LmPC-PLC towards 4-NPPC (slope) (LmPC-PLC [1]; inhibitor 4 uM, LmPC-PLC 500 nM, 4-NPPC 1 mM, 20 mM MES pH 6.5, 150 mM NaCl, replicate 2 of N=3): 0.0005039 abs/min
- Activity of LmPC-PLC towards 4-NPPC (slope) (LmPC-PLC [1]; inhibitor 4 uM, LmPC-PLC 500 nM, 4-NPPC 1 mM, 20 mM MES pH 6.5, 150 mM NaCl, replicate 3 of N=3): 0.0004264 abs/min
- Activity of LmPC-PLC towards 4-NPPC (slope) (LmPC-PLC [1]; inhibitor 8 uM, LmPC-PLC 500 nM, 4-NPPC 1 mM, 20 mM MES pH 6.5, 150 mM NaCl, replicate 1 of N=3): 0.0004334 abs/min
- Activity of LmPC-PLC towards 4-NPPC (slope) (LmPC-PLC [1]; inhibitor 8 uM, LmPC-PLC 500 nM, 4-NPPC 1 mM, 20 mM MES pH 6.5, 150 mM NaCl, replicate 2 of N=3): 0.0004696 abs/min
- Activity of LmPC-PLC towards 4-NPPC (slope) (LmPC-PLC [1]; inhibitor 8 uM, LmPC-PLC 500 nM, 4-NPPC 1 mM, 20 mM MES pH 6.5, 150 mM NaCl, replicate 3 of N=3): 0.0004182 abs/min
- Activity of LmPC-PLC towards 4-NPPC (slope) (LmPC-PLC [1]; inhibitor 16 uM, LmPC-PLC 500 nM, 4-NPPC 1 mM, 20 mM MES pH 6.5, 150 mM NaCl, replicate 1 of N=3): 0.0003725 abs/min
- Activity of LmPC-PLC towards 4-NPPC (slope) (LmPC-PLC [1]; inhibitor 16 uM, LmPC-PLC 500 nM, 4-NPPC 1 mM, 20 mM MES pH 6.5, 150 mM NaCl, replicate 2 of N=3): 0.0004155 abs/min
- Activity of LmPC-PLC towards 4-NPPC (slope) (LmPC-PLC [1]; inhibitor 16 uM, LmPC-PLC 500 nM, 4-NPPC 1 mM, 20 mM MES pH 6.5, 150 mM NaCl, replicate 3 of N=3): 0.0003534 abs/min
- Activity of LmPC-PLC towards 4-NPPC (slope) (LmPC-PLC [1]; inhibitor 31 uM, LmPC-PLC 500 nM, 4-NPPC 1 mM, 20 mM MES pH 6.5, 150 mM NaCl, replicate 1 of N=3): 0.0002559 abs/min
- Activity of LmPC-PLC towards 4-NPPC (slope) (LmPC-PLC [1]; inhibitor 31 uM, LmPC-PLC 500 nM, 4-NPPC 1 mM, 20 mM MES pH 6.5, 150 mM NaCl, replicate 2 of N=3): 0.0003429 abs/min
- Activity of LmPC-PLC towards 4-NPPC (slope) (LmPC-PLC [1]; inhibitor 31 uM, LmPC-PLC 500 nM, 4-NPPC 1 mM, 20 mM MES pH 6.5, 150 mM NaCl, replicate 3 of N=3): 0.0003443 abs/min

Compound: [Zn] [Zn]
- Activity of LmPC-PLC, 4-NPPC as substrate (slope) (LmPC-PLC [1]; Zn 500 uM, 0 mM TCEP, LmPC-PLC 500 nM, 4-NPPC 1 mM, replicate 1): 0.0003721
- Activity of LmPC-PLC, 4-NPPC as substrate (slope) (LmPC-PLC [1]; Zn 500 uM, 0 mM TCEP, LmPC-PLC 500 nM, 4-NPPC 1 mM, replicate 2): 0.0004616
- Activity of LmPC-PLC, 4-NPPC as substrate (slope) (LmPC-PLC [1]; Zn 500 uM, 0 mM TCEP, LmPC-PLC 500 nM, 4-NPPC 1 mM, replicate 3): 0.0006377
- Activity of LmPC-PLC, 4-NPPC as substrate (slope) (LmPC-PLC [1]; Zn 5000 uM, 0 mM TCEP, LmPC-PLC 500 nM, 4-NPPC 1 mM, replicate 1): 0.0007074
- Activity of LmPC-PLC, 4-NPPC as substrate (slope) (LmPC-PLC [1]; Zn 5000 uM, 0 mM TCEP, LmPC-PLC 500 nM, 4-NPPC 1 mM, replicate 2): 0.000691
- Activity of LmPC-PLC, 4-NPPC as substrate (slope) (LmPC-PLC [1]; Zn 5000 uM, 0 mM TCEP, LmPC-PLC 500 nM, 4-NPPC 1 mM, replicate 3): 0.0004664

Compound: broad-range phospholipase C from Listeria monocytogenes (LmPC-PLC), wild type, mature form (from UniProt P33378 52-289) (enzyme)
- stoichiometry N [3]: 2
